Series [1] relates to T1, CTL2-GFP (C. trachomatis L2/434/Bu, GFP-expressing).
T1 construct: L2/434/Bu, GFP-expressing
Briefly: microbe, parasite or virus in culture. Further details: Intracellular C. trachomatis growth in HeLa cells, bulk GFP fluorescence relative to DMSO. The conditions noted are these: Chlamydia trachomatis, HeLa, 28.5 h; bulk GFP, mean of 2; read-out: % of control remaining. The procedure: MICs were calculated as described above.

The nature of a further series: in vitro. Further details: Viability of infected HeLa host cells, resazurin conversion, bulk resorufin fluorescence relative to DMSO. Particulars: human, hela cells; bulk resorufin, mean of 2.
Series [2] has as its system T2, C. trachomatis L2/434/Bu expressing GFP (CTL2-GFP).
T2 construct: L2/434/Bu GFP intracellular growth in HeLa cells
Briefly: microbe, parasite or virus in culture. Particulars: Chlamydia trachomatis, HeLa, 28.5 h; total inclusion area; read-out: % of control remaining. Also noted: C. trachomatis total inclusion area by high-content imaging, normalised to DMSO. An outline of the steps: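 After bulk GFP and resorufin reads, fixed cells were Hoechst-stained and imaged to count chlamydial inclusions and host nuclei. Total inclusion area and number tracked bacterial growth, and nuclei number tracked host viability. MICs were derived, and 36,785 drug-like molecules were screened this way.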

The source of these data is article PMC12040169 (PLOS Biology, 2025).

In general, viability refers to a read-out of living cells in per cent, often relative to untreated cells. As for `Cc1cccc(-c2ccc(CC3(C(N)=O)CCN(C(=O)CCc4ccccc4)CC3)cc2)c1` [CBK285796], in series [1], the activity at 1 µM turned out to be 133%, the activity at 5 µM was determined as 4.53% and the activity at 10 µM is 4.56%. Moreover, in the series “in vitro”, the viability at 28.5 h, 1 µM amounted to 91.6%; the viability at 28.5 h, 5 µM stood at 96.9%; the viability at 28.5 h, 10 µM came out at 106%. Moreover, in series [2], the activity at 1 µM came out at 113%, the activity at 5 µM was determined as 4.18% and the activity at 10 µM was 1.3%.
For `Cc1ccc2[nH]c3c(c2c1)CCOC31CCN(Cc2ccccc2-c2ccccc2)CC1` [CBK039915], in series [1], the activity at 1 µM came out at 69.3%, the activity at 5 µM turned out to be 33.8% and the activity at 10 µM was 27.9%. Besides, in “in vitro”, the viability at 28.5 h, 1 µM came to 99.1%; the viability at 28.5 h, 5 µM was 93.6%; the viability at 28.5 h, 10 µM was determined as 100%. For the same compound, in series [2], the activity at 1 µM was determined as 27.9%, the activity at 5 µM stood at 15.9% and the activity at 10 µM came to 7.2%.
As for `CC(=O)NC[C@H]1CN(c2ccc(-c3nnc(C(C)O)s3)c(F)c2)C(=O)O1` (stereo partly drawn) [CBK017968], in series [1], the activity at 1 µM is 51.4%, the activity at 5 µM turned out to be 2.06% and the activity at 10 µM stood at 5.93%. Moreover, in the series “in vitro”, the viability at 28.5 h, 1 µM is 91.4%; the viability at 28.5 h, 5 µM amounted to 90.3%; the viability at 28.5 h, 10 µM was found to be 90.8%. Moreover, in series [2], the activity at 1 µM worked out at 46.6%, the activity at 5 µM was 0.644% and the activity at 10 µM turned out to be 0.166%.
As to `Cc1cc(C)c2nc(-c3ccccn3)cc(C(=O)Nc3ccc(S(=O)(=O)Nc4onc(C)c4C)cc3)c2c1` [CBK267775], in series [1], the activity at 1 µM turned out to be 95.8%, the activity at 5 µM turned out to be 105% and the activity at 10 µM turned out to be 66.8%. In the series “in vitro”, the viability at 28.5 h, 1 µM worked out at 100%; the viability at 28.5 h, 5 µM is 94.8%; the viability at 28.5 h, 10 µM came out at 98.6%. Further, in series [2], the activity at 1 µM amounted to 115%, the activity at 5 µM was found to be 111% and the activity at 10 µM turned out to be 74.8%.
With `O=C(Nc1ccc(F)cc1)c1[nH]c2ccccc2c1NS(=O)(=O)c1cc(Cl)sc1Cl` [CBK050094], in series [1], the activity at 1 µM worked out at 151%, the activity at 5 µM turned out to be 124% and the activity at 10 µM is 118%. In “in vitro”, the viability at 28.5 h, 1 µM was determined as 90%; the viability at 28.5 h, 5 µM came to 96.8%; the viability at 28.5 h, 10 µM was 86.9%. Moreover, in series [2], the activity at 1 µM came out at 126%, the activity at 5 µM was found to be 99.9% and the activity at 10 µM is 62.7%.
For `Fc1cc(CN2CCC3(CC2)OCCc2c3[nH]c3ccc(Br)cc23)cc(F)c1F` [CBK039943], in series [1], the activity at 1 µM is 121%, the activity at 5 µM turned out to be 66.6% and the activity at 10 µM is 46.8%. Further, in “in vitro”, the viability at 28.5 h, 1 µM was determined as 98.2%; the viability at 28.5 h, 5 µM was found to be 92.1%; the viability at 28.5 h, 10 µM worked out at 90.4%. Further, in series [2], the activity at 1 µM came to 102%, the activity at 5 µM worked out at 32.3% and the activity at 10 µM came to 21.4%.
For the compound `CCCCc1ccc(Nc2csc(N)n2)cc1` [CBK020594], in series [1], the activity at 1 µM was found to be 67.9%, the activity at 5 µM is 10.8% and the activity at 10 µM is 6.72%. In the series “in vitro”, the viability at 28.5 h, 1 µM was found to be 89.3%; the viability at 28.5 h, 5 µM came to 84.9%; the viability at 28.5 h, 10 µM was 76.9%. Further, in series [2], the activity at 1 µM came out at 58.1%, the activity at 5 µM came out at 0.609% and the activity at 10 µM was 0.496%.
As for `O=C(CC1CCN(CCc2ccccc2)CC1)Nc1cccc(-n2cccn2)c1` [CBK285951], in series [1], the activity at 1 µM was found to be 11.3%, the activity at 5 µM worked out at 5.45% and the activity at 10 µM was 1.48%. In the series “in vitro”, the viability at 28.5 h, 1 µM amounted to 91.7%; the viability at 28.5 h, 5 µM turned out to be 87.4%; the viability at 28.5 h, 10 µM was determined as 88.6%. Also, in series [2], the activity at 1 µM amounted to 13.7%, the activity at 5 µM was determined as 0.475% and the activity at 10 µM was 0.166%.
Regarding `O=C(NS(=O)(=O)c1cccc(-c2nnco2)c1)C1CC1C1CCCCC1` (stereo not drawn) [CBK305924], in series [1], the activity at 1 µM is 129%, the activity at 5 µM came out at 146% and the activity at 10 µM came out at 143%. Also, in the series “in vitro”, the viability at 28.5 h, 1 µM was 91%; the viability at 28.5 h, 5 µM came to 99.4%; the viability at 28.5 h, 10 µM turned out to be 94.7%. Moreover, in series [2], the activity at 1 µM was 120%, the activity at 5 µM was 151% and the activity at 10 µM was found to be 119%.
For `CC(=O)NC[C@H]1CN(c2ccc3c(c2)CCN(C(C)=O)CC3)C(=O)O1` [CBK018491], in series [1], the activity at 1 µM stood at 112%, the activity at 5 µM is 8.52% and the activity at 10 µM was found to be 0.0674%. Moreover, in “in vitro”, the viability at 28.5 h, 1 µM is 91.8%; the viability at 28.5 h, 5 µM came to 95.1%; the viability at 28.5 h, 10 µM worked out at 112%. In addition, in series [2], the activity at 1 µM came out at 57.6%, the activity at 5 µM is 10.2% and the activity at 10 µM came out at 1.08%.
With `O=[N+]([O-])c1ccc(-n2cnc3ccccc32)c([N+](=O)[O-])c1` [CBK261120], in series [1], the activity at 1 µM turned out to be 104%, the activity at 5 µM stood at 40.1% and the activity at 10 µM stood at 0%. Moreover, in the series “in vitro”, the viability at 28.5 h, 1 µM was determined as 107%; the viability at 28.5 h, 5 µM was found to be 88.2%; the viability at 28.5 h, 10 µM worked out at 111%. In series [2], the activity at 1 µM worked out at 86.4%, the activity at 5 µM worked out at 46.4% and the activity at 10 µM came out at 2.35%.
On to `CCc1nnc(NS(=O)(=O)c2ccc(N/C=C3\C(=O)N(c4ccc(Cl)cc4)N=C3C)cc2)s1` [CBK262416], for which, in series [1], the activity at 1 µM is 91.1%, the activity at 5 µM worked out at 26.1% and the activity at 10 µM worked out at 13.2%. In the series “in vitro”, the viability at 28.5 h, 1 µM was 91.9%; the viability at 28.5 h, 5 µM was 94.3%; the viability at 28.5 h, 10 µM was found to be 93.3%. In series [2], the activity at 1 µM stood at 102%, the activity at 5 µM was 50.5% and the activity at 10 µM amounted to 27%.
With `Cc1ccc2[nH]c(-c3cccc(NC(=O)c4cccc(CN5CCCC5=O)c4)c3)nc2c1` [CBK285838], in series [1], the activity at 1 µM turned out to be 137%, the activity at 5 µM came out at 94.9% and the activity at 10 µM was determined as 34.2%. Moreover, in “in vitro”, the viability at 28.5 h, 1 µM turned out to be 93%; the viability at 28.5 h, 5 µM was determined as 83.3%; the viability at 28.5 h, 10 µM is 87.6%. Further, in series [2], the activity at 1 µM was found to be 125%, the activity at 5 µM was 91.8% and the activity at 10 µM was determined as 48.2%.
Turning to `COc1cc(NS(=O)(=O)c2ccc(N/C=C3/CCc4ccccc4C3=O)cc2)nc(OC)n1` [CBK263376], in series [1], the activity at 1 µM was 108%, the activity at 5 µM is 26% and the activity at 10 µM came to 22.7%. In “in vitro”, the viability at 28.5 h, 1 µM is 101%; the viability at 28.5 h, 5 µM is 99.1%; the viability at 28.5 h, 10 µM is 78.6%. Further, in series [2], the activity at 1 µM was determined as 83.5%, the activity at 5 µM stood at 48.7% and the activity at 10 µM is 12.5%.
Consider `COc1nccnc1NS(=O)(=O)c1ccc(Nc2c([N+](=O)[O-])cc([N+](=O)[O-])c3nonc23)cc1` [CBK261441], for which, in series [1], the activity at 1 µM stood at 33.2%, the activity at 5 µM stood at 18% and the activity at 10 µM is 10.6%. In “in vitro”, the viability at 28.5 h, 1 µM is 90.8%; the viability at 28.5 h, 5 µM amounted to 95.9%; the viability at 28.5 h, 10 µM is 94.2%. Besides, in series [2], the activity at 1 µM was found to be 42.6%, the activity at 5 µM was 28.1% and the activity at 10 µM was 24.2%.
On to `CC(C)(CN)CN(Cc1ccccc1Br)C(=O)NC(c1ccccc1)c1ccccc1` [CBK002488C], for which, in series [1], the activity at 1 µM was 150%, the activity at 5 µM stood at 114% and the activity at 10 µM amounted to 85.7%. Also, in “in vitro”, the viability at 28.5 h, 1 µM worked out at 92.2%; the viability at 28.5 h, 5 µM was determined as 93.1%; the viability at 28.5 h, 10 µM came to 90%. Besides, in series [2], the activity at 1 µM worked out at 112%, the activity at 5 µM amounted to 116% and the activity at 10 µM was determined as 38.2%.
With `CC(=O)NC[C@H]1CN(c2ccc3c(c2)CCN(C(=O)Cc2ccccc2)CC3)C(=O)O1` [CBK018499], in series [1], the activity at 1 µM was 37.5%, the activity at 5 µM is 2.41% and the activity at 10 µM turned out to be 5.46%. In addition, in the series “in vitro”, the viability at 28.5 h, 1 µM was 92.9%; the viability at 28.5 h, 5 µM turned out to be 95.9%; the viability at 28.5 h, 10 µM is 92.1%. In addition, in series [2], the activity at 1 µM turned out to be 38%, the activity at 5 µM was 0.495% and the activity at 10 µM amounted to 0.215%.
For `O=C(O)c1cn(C2CC2)c2cc(N3CCN(C(=O)C4CCCO4)CC3)c(F)cc2c1=O` (stereo not drawn) [CBK297139], in series [1], the activity at 1 µM stood at 96.1%, the activity at 5 µM is 15.3% and the activity at 10 µM turned out to be 0.67%. In addition, in “in vitro”, the viability at 28.5 h, 1 µM turned out to be 97%; the viability at 28.5 h, 5 µM came to 94.9%; the viability at 28.5 h, 10 µM amounted to 114%. In series [2], the activity at 1 µM stood at 46.9%, the activity at 5 µM stood at 12.4% and the activity at 10 µM came out at 6.62%.
In the case of `CNC(=S)N1CCN(c2nsc3ccccc23)CC1` [CBK288515], in series [1], the activity at 1 µM came to 4.18%, the activity at 5 µM is 3.58% and the activity at 10 µM came out at 5.68%. In the series “in vitro”, the viability at 28.5 h, 1 µM came out at 98.8%; the viability at 28.5 h, 5 µM was found to be 96.2%; the viability at 28.5 h, 10 µM was 101%. Besides, in series [2], the activity at 1 µM amounted to 0.93%, the activity at 5 µM was determined as 0.381% and the activity at 10 µM was 0.417%.
